Reference: US5708016A, “Pseudopeptides derived from neurokinins” (Adir et Compagnie, priority 1996, dated 1998)

Assays:
human NK1 receptor = target: T1, human NK1 receptor (Homo sapiens, UniProt P25103); assay: Affinity for the human NK1 receptor on IM-9 human lymphoblasts; type: binding
T1 construct: IM-9 human lymphoblasts specifically expressing the NK1 receptor; endogenous in cells; host or cells: IM-9 human lymphoblasts
Source text: (§1) The affinity for the human NK1 and NK2 receptors was studied on IM-9 human lymphoblasts specifically expressing the NK1 receptor as described by D. G. Payan et al. (J. Biol. Chem. 1986, 261, 14321-14329) and on CHO-K1 cells transfected with the NK2 receptor according to the CellPhect transfection kit (Pharmacia).

human NK2 receptor = target: T2, human NK2 receptor (Homo sapiens, UniProt P21452); assay: Affinity for the human NK2 receptor on transfected CHO-K1 cells; type: binding; details: CHO-K1 cells transfected with the NK2 receptor
T2 construct: expressed in transfected cells; host or cells: CHO-K1
T2 sequence (P21452 1-398): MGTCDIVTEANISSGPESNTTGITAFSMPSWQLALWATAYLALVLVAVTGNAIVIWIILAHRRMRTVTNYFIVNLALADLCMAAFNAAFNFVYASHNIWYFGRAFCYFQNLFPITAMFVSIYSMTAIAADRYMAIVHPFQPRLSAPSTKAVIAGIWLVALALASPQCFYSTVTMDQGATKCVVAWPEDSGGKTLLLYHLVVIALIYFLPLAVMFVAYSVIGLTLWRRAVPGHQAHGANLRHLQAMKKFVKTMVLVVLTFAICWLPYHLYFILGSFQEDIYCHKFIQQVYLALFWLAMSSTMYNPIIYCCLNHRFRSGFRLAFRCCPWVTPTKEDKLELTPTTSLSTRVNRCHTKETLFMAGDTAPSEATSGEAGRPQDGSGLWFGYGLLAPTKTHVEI
Source text: as §1

NK1 receptors = target: T3, NK1 receptors (Oryctolagus cuniculus, UniProt G1SEI7); assay: Isolated smooth muscle: rabbit vena cava (RVC) contraction, antagonist pA2; type: biochemical
T3 construct: two isolated preparations of smooth muscle were used: the rabbit vena cava (RVC); from tissue; host or cells: rabbit vena cava
Source text: (§2) In order to evaluate the functional activity of the compounds of the invention as neurokinin antagonists, two isolated preparations of smooth muscle were used: the rabbit vena cava (RVC) and the rabbit pulmonary artery without endothelium (RPA), the contractile responses of which are mediated, respectively, by the NK1 and NK2 receptors as shown by D. Jukic et al. (Life Sci. 1991, 49, 1463-1469).
(§3) The antagonist power of the compounds of the invention was expressed in the form of pA2 as defined by O. Arunlakshana and H. O. Schild (Brit. J. Pharmacol. 1959, 14, 48-58).

NK2 receptors = target: T4, NK2 receptors (Oryctolagus cuniculus, UniProt P79218); assay: Isolated smooth muscle: rabbit pulmonary artery without endothelium (RPA) contraction, antagonist pA2; type: biochemical
T4 construct: the rabbit pulmonary artery without endothelium (RPA); from tissue; host or cells: rabbit pulmonary artery without endothelium
T4 sequence (P79218 1-384): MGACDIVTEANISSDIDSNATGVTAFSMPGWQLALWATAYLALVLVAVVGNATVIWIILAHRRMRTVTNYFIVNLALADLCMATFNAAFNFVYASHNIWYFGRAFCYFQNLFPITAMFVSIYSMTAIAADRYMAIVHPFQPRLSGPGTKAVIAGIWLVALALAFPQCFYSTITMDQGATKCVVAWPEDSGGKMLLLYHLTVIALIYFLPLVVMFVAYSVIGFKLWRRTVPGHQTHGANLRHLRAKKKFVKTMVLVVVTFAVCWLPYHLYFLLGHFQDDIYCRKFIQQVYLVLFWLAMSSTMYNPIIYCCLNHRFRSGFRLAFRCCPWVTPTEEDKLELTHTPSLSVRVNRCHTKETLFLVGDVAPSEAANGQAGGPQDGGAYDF
Source text: as §2, §3

[1] = system: capsaicin-induced plasma extravasation; assay: Inhibition of capsaicin-induced plasma extravasation in guinea pig bronchi; type: in vivo, guinea pigs; details: iv 5 minutes before capsaicin 200 μg/kg iv, Evans blue
Protocol: The effect of the compounds on the plasma extravasation caused by intravenous injection of capsaicin (200 μg/kg) in guinea pigs was evaluated in the bronchi according to the method described by Robineau et al (Eur. J. Pharmacol., 1995, 294, 677-684). The accumulation in the bronchi of Evans blue injected IV 1 minute before capsaicin was quantified by spectrophotometry after extraction of the dye with acetone. The inhibitory activity of the compounds via the intravenous route 5 minutes before capsaicin was expressed as a 50% inhibitory dose in comparison to a control group (8 animals per group).

[2] = system: substance P-induced bronchoconstriction; assay: Inhibition of substance P-induced bronchoconstriction in guinea pigs; type: in vivo
Protocol: The study is carried out on male Hartley guinea pigs (Charles River) weighing 300 to 400 g on average. The study is carried out on anesthetized (ethyl carbamate 1.5 g/kg) and Flaxedilcurarized (0.2 mg/kg iv) animals ventilated at a rate of 60 per minute and a volumetric flow of 10ml/kg. The animals are pretreated with pyrilamine (1 mg/kg iv) and propranolol (1 mg/kg iv).
The criterion of judgment of bronchoconstriction is the increase in tracheal insufflation pressure (TIP) induced by the iv injection of substance P at a dose of 2 nM/kg iv, each animal being its own control. Injection of the test product is performed with reference to the time TO of the injection of the product.
The results are expressed as a dose inhibiting substance P-induced bronchoconstriction by 50%, this percentage being calculated according to the following formula: (ΔTIP before product-ΔTIP after product)/ΔTIP before product (expressed as a percentage).

T3 sequence (G1SEI7 1-407): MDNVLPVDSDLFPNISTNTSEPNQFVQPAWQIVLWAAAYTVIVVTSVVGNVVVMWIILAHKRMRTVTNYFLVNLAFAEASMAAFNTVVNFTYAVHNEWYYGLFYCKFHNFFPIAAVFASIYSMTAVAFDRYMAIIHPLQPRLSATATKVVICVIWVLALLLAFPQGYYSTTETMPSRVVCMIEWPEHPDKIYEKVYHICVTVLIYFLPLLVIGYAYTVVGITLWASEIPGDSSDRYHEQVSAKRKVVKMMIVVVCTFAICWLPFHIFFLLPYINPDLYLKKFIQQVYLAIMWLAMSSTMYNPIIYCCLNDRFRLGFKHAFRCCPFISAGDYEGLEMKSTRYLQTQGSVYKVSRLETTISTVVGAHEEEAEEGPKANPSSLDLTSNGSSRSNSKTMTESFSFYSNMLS
T1 sequence (P25103 whole entry): as the sequence (G1SEI7 1-407) above, with F12S, D189N, A369P, E371D, N376T, G386C, N391D, Y402S, M405V counted along it

Compound: O=C(OCc1cc(C(F)(F)F)cc(C(F)(F)F)c1)[C@H](Cc1c[nH]c2ccccc12)NC(=O)[C@@H]1C[C@@H](O)CN1C(=O)c1cn(CCCCc2nnn[nH]2)c2ccccc12.[K] [Example 1, {1-[4-(1H-Tetrazol-5-yl)butyl]-3-indolyl}carbonyl-Hyp-Trp-OBzl(3,5-ditrifluoromethyl) potassium salt]
- Ki (human NK1 receptor): 2.4 nM
- Ki (human NK2 receptor): 4200 nM
- pA2 in relation to the NK1 receptors (NK1 receptors): 8.9
- pA2 in relation to the NK2 receptors (NK2 receptors): 5.2
- ED50, inhibition of capsaicin-induced plasma extravasation [1]: 0.026 mg/kg
- ED50, dose inhibiting substance P-induced bronchoconstriction by 50% ([2]; anesthetized guinea pigs, substance P 2 nM/kg iv, tracheal insufflation pressure): 0.06 mg/kg
- Potency relative to compound of Example 1 of Patent EP 684,257 ([2]; substance P-induced bronchoconstriction, guinea pigs): two and a half times as potent
